In one assay the test system is S. aureus MN8. Type of assay: cell-based, Staphylococcus aureus. As to conditions: 24 hours at 35° C.
A further assay has as its system TSST-1. Type of assay: cell-based, Staphylococcus aureus.

Read-outs that look alike come from different tables or passages of the source.

Regarding PPG-5 Laureth-5, the “Final [S. aureus] (×10^9 CFU/ml)” value in the assay on S. aureus MN8 is recorded as 3.82 ×10^9 CFU/ml. Further, the “TSST-1” value in the assay on TSST-1 is given as 609.2 ng/mL.
Consider Steareth-2, for which the “Final [S. aureus] (×10^9 CFU/ml)” value with S. aureus MN8 is given as 5.76 ×10^9 CFU/ml. For the same substance, in the assay on TSST-1 (24 hours at 35° C.), the “TSST-1” value is listed as 680.7 ng/mL.
Take Laureth-4: the “Final [S. aureus] (×10^9 CFU/ml)” value with S. aureus MN8 is on record as 4.57 ×10^9 CFU/ml. Further, the “TSST-1” value with TSST-1 (24 hours at 35° C.) is on record as 531.8 ng/mL.

The record behind these values is US6531435B1 (priority 2000, dated 2003).
